Assay results from US6596863B2, “Medical composition containing nitroetheneamine Derivative or salt there of as active constituent” (Ishihara Sangyo Kaisha, Ltd., priority 1998, dated 2003).
Where two headings read alike, the source gives them in different places.

Legend:
[1] = molecular target: T1, human MMP-9 (gelatinase B) (Homo sapiens, UniProt P14780); assay: Inhibition activity against human MMP-9 (gelatinase B), fluorescent peptide substrate; assay type: biochemical
T1 construct: endogenous in cells; host or cells: HT1080 human fibrosarcoma cells (ATCC CCL-121), PMA-stimulated; enzyme purified from the culture supernatant
T1 sequence (P14780 107-707 limits assumed): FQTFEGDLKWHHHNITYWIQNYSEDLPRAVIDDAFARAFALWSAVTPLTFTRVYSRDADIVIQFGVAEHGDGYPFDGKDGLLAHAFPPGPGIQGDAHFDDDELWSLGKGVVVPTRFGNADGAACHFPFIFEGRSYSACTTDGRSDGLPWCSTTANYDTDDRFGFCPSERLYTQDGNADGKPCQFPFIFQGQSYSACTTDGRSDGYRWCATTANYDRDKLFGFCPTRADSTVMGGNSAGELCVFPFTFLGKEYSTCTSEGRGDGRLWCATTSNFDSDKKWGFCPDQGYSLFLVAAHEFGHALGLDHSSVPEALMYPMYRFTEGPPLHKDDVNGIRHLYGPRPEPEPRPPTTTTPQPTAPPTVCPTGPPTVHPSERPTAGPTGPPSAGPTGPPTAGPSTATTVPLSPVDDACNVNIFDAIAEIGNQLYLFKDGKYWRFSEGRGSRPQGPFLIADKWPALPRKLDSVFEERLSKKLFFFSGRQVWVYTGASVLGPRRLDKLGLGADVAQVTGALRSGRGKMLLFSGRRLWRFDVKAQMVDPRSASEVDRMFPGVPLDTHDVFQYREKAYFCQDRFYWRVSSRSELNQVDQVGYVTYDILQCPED
Experimental: Human MMP-9 (gelatinase B) was purified by the following method from a culture supernatant of HT1080 cells (human fibrosarcoma).
2.5×10^6 HT1080 cells (ATCC CCL-121, purchased from Dainippon Seiyaku) were inoculated to a tissue culture dish (Code No. 3020-100, manufactured by Iwaki Glass Co., Ltd.) having a diameter of 10 cm and containing 10 ml of Dulbecco's Modified Eagle Medium (DME, No. D-5648, manufactured by Sigma Co.) containing 10% fetal bovine serum (FBS: REHATUIN™, Code No. 1020-90, manufactured by Intergen Co.) and cultured for 72 hours at 37° C. in an atmosphere comprising 5% of CO2 and 95% of air (Carbon Dioxide Incubator LNA-122D Model, manufactured by Tabai Co.). Then, the medium was changed to 10 ml of a DME culture medium containing no FBS, and phorbol 12-myristate 13-acetate (PMA, code No. 163-114851, manufactured by Wako Pure Chemical Industries, Ltd.) was added so that the final concentration became 10 ng/ml. Under the same conditions, the culturing was carried out for further 20 hours, whereupon the culture supernatant was collected and subjected to cool centrifugation at 4° C. for 5 minutes (cool centrifugal separator, manufactured by Hitachi) to remove cell fragments.
The pH of a conditioned medium (50 ml) containing MMP-9, thus prepared, was adjusted to 8.0 with 0.2N NaOH. […] Namely, the above-mentioned conditioned medium was passed through DEAE-Sephacel (manufactured by Pharmacia, gel volume: about 35 ml) preliminarily equilibrated with 50 mM Tris-HCl, pH 8.0 (A buffer), and a non-adsorption fraction was collected. Then, it was added to Dye Matrix Gel Green A (manufactured by Amicon Co., gel volume: about 6 ml) preliminarily equilibrated with 50 mM Tris-HCl, pH 7.5/10 MM CaCl2/0.05% Brij 35/0.02% NaN3 (B buffer) and thoroughly washed with the same buffer, whereupon the adsorbed enzyme was eluted with a 1M NaCl-containing B buffer. About 7.5 ml of the eluted fraction was diluted twice with the B buffer and added to Gelatin-Sepharose 4B (manufactured by Pharmacia, gel volume: about 6 ml) preliminarily equilibrated with a 0.5 M NaCl-containing B buffer. It was thoroughly washed with a 0.5M NaCl-containing B buffer, and eluted with the B buffer containing 10% of dimethylsulfoxide (DMSO) and 0.5 M of NaCl. 5.5 ml of the eluted fraction was dialyzed against a 0.1 M NaCl-containing B buffer to obtain 5.2 ml of a purified enzyme solution. The purified MMP-9 standard product was confirmed to have a single band of 92 kDa by a protein staining by SDS electrophoresis, and further, it was confirmed to have an adequate gelatin decomposing activity by gelatinzymography (carried out in accordance with a method by Howard E. W. et al; Journal Biological Chemistry, Vol. 266, 13064-13069, 1991) and to have an adequate substrate decomposing activity by the after-mentioned measurement employing a fluorescent peptide substrate specific to MMP.
The inhibition activity against human MMP-9 was measured by the following method in accordance with the method by C. G. Knight et al (FEBS Letters, Vol, 296, 263-266, 1992) employing a fluorescent peptide substrate (7-methoxycoumarin-4-yl)Acetyl-Pro-Leu-Gly-Leu-(3-[2,4-dinitrophenyl]—Ala—Arg-NH2, Code 3163-VC, manufactured by Peptide Institute, Inc.
Further, as the case requires, commercially available human MMP-9 purified enzyme (No. YU-18003, manufactured by Kabushiki Kaisha Yagai Chuo Kenkyusho; used in a final concentration of from 0.0125 to 0.025 unit/ml, No. CC079, manufactured by Chemicon International, Inc.; used in a final concentration of 0.2 μg/ml) was used for the tests. […]

[2] = compounds of the formula (I), 1st measurement, read-out: MMP-9 inhibition activities IC50, 1st
[3] = compounds of the formula (I), 2nd measurement, read-out: MMP-9 inhibition activities IC50, 2nd
[4] = compounds of the formula (I), average of 1st and 2nd (or single measurement), read-out: MMP-9 inhibition activities IC50, Average
[5] = intermediates, compounds of the formula (IV), 1st measurement, read-out: MMP-9 inhibition activities IC50, 1st
[6] = intermediates, compounds of the formula (IV), 2nd measurement, read-out: MMP-9 inhibition activities IC50, 2nd
[7] = intermediates, compounds of the formula (IV), average of 1st and 2nd (or single measurement), read-out: MMP-9 inhibition activities IC50, Average

IC50 [1, 2] [µM] | IC50 [1, 3] [µM] | IC50 [1, 4] [µM] | melting point | IC50 [1, 5] [µM] | IC50 [1, 6] [µM] | IC50 [1, 7] [µM] | Compound
49.8 | 43.9 | 46.8 | 186 °C (dec.) | – | – | – | CNC(=C[N+](=O)[O-])NNc1ccc(C)cc1 [Compound No. 16]
10.1 | 13.2 | 11.7 | 207 °C (dec.) | – | – | – | CNC(=C[N+](=O)[O-])NNc1ccc(C(F)(F)F)cn1 [Compound No. 19]
39.7 | 42.2 | 40.9 | 161 °C (dec.) | – | – | – | NNC(=C[N+](=O)[O-])Nc1ccc(OC(F)(F)F)cc1 [Compound No. 61, N-(1-hydrazino-2-nitroethenyl)-4-trifluoromethoxyaniline]
8.8 | 7.8 | 8.3 | 193 °C (dec.) | – | – | – | CNC(=C[N+](=O)[O-])NNc1cc(C(F)(F)F)cc(OC)n1 [Compound No. 98, N-methyl-1-(2-(4-trifluoromethyl-6-methoxy-2-pyridyl)hydrazino)-2-nitroetheneamine]
38.7 | 26 | 32.4 | 125 to 126 °C (dec.) | – | – | – | CNC(=C[N+](=O)[O-])NNc1cc(C(F)(F)F)cc(OCCN(C)C)n1 [Compound No. 100]
– | – | – | 101.5 to 106 °C | 31.4 | 59.9 | 45.7 | CSC(=C[N+](=O)[O-])NC1CC1 [Intermediate 2]
– | – | – | 82 to 87.5 °C | 21.3 | 37.3 | 29.3 | CSC(=C[N+](=O)[O-])NC1CCCC1 [Intermediate 3]
– | – | – | 193 °C (dec.) | 25.3 | 24.5 | 24.9 | CSC(=C[N+](=O)[O-])Nc1ccc(O)cc1 [Intermediate 12]
– | – | – | 118 to 121 °C | 38.9 | 49.6 | 44.3 | COc1cccc(NC(=C[N+](=O)[O-])SC)c1 [Intermediate 20]
– | – | – | 156 °C | 31.6 | 54.4 | 43 | CSC(=C[N+](=O)[O-])Nc1ccc(F)cc1 [Intermediate 21]
– | – | – | 128 to 130 °C | 38.9 | 35.3 | 37.1 | COc1ccccc1NC(=C[N+](=O)[O-])SC [Intermediate 25]
– | – | – | 134 to 137 °C | 29.5 | 29 | 29.3 | COc1ccc(NC(=C[N+](=O)[O-])SC)cn1 [Intermediate 49]
– | – | – | 116 to 123 °C | 33.9 | 25.3 | 29.6 | CCOC(=O)c1ccc(NC(=C[N+](=O)[O-])SC)cc1 [Intermediate 50]
– | – | – | 153 to 155 °C | 31.6 | 26 | 28.8 | CSC(=C[N+](=O)[O-])Nc1ccc2c(c1)OCO2 [Intermediate 51]
– | – | – | 221 to 222 °C (dec.) | 61.5 | 50.4 | 56 | CSC(=C[N+](=O)[O-])Nc1ccc2c(c1)C(=O)CO2 [Intermediate 52]
– | – | – | 184 to 188 °C | 38.7 | 33.9 | 36.3 | CSC(=C[N+](=O)[O-])Nc1c(C)nn(C)c1C [Intermediate 54]

IC50 [1, 2] [µM] | IC50 [1, 3] [µM] | IC50 [1, 4] [µM] | melting point | IC50 [1, 5] [µM] | IC50 [1, 6] [µM] | IC50 [1, 7] [µM] | Compound
– | – | – | 214 to 216 °C | 32.5 | 25.5 | 29 | CSC(=C[N+](=O)[O-])Nc1ccc2cn[nH]c2c1 [Intermediate 55]
– | – | – | 205 °C (dec.) | 8.2 | – | 8.2 | CSC(=C[N+](=O)[O-])NS(=O)(=O)c1ccc2ccccc2c1 [Intermediate 61]
– | – | – | 75 to 77 °C | 4.5 | – | 4.5 | CSC(=C[N+](=O)[O-])NS(=O)(=O)c1ccc(-c2ccccc2)cc1 [Intermediate 62]
36.7 | 30.1 | 33.4 | 178 °C (dec.) | – | – | – | CNC(=C[N+](=O)[O-])NNc1ccccc1Cl [compound 8]
47.4 | 42.2 | 44.8 | 171 °C (dec.) | – | – | – | CNC(=C[N+](=O)[O-])NNc1ccccc1C [compound 14]
43.8 | 28.8 | 36.3 | 168 °C (dec.) | – | – | – | CNC(=C[N+](=O)[O-])NNc1ccc(OC)cc1 [compound 17]
18.3 | 26.6 | 22.5 | 159 to 160 °C | – | – | – | CNC(=C[N+](=O)[O-])NN=Cc1ccccc1 [compound 18]
11.7 | 18.1 | 14.9 | 168 °C (dec.) | – | – | – | CNC(=C[N+](=O)[O-])NNc1ncc(C(F)(F)F)cc1Cl [compound 21]
17.9 | 17.4 | 17.7 | 156 °C (dec.) | – | – | – | CNC(=C[N+](=O)[O-])NNc1ccccn1 [compound 22]
42.5 | 54.8 | 48.7 | 144 to 145 °C | – | – | – | CNC(=C[N+](=O)[O-])NNC(O)C(F)(F)F (stereo not shown) [compound 23]
21.9 | 30 | 26 | 136 °C | – | – | – | CNC(=C[N+](=O)[O-])NN=C(C)C [compound 25]
31.9 | 31.5 | 31.7 | 159 °C (dec.) | – | – | – | CNC(=C[N+](=O)[O-])NN=C(C)OC [compound 26]
26.6 | 24.5 | 25.6 | 161 to 162 °C | – | – | – | CNC(=C[N+](=O)[O-])NNc1cc(C(F)(F)F)cc(C)n1 [compound 27]
26.7 | 24 | 25.4 | 165 °C (dec.) | – | – | – | CNC(=C[N+](=O)[O-])NN=C(C)c1cccs1 [compound 32]
30.6 | 31.9 | 31.8 | 170 °C (dec.) | – | – | – | CNC(=C[N+](=O)[O-])NN=C(C)c1ccccn1 [compound 33]
30.2 | 26.9 | 28.6 | 181 °C (dec.) | – | – | – | CNC(=C[N+](=O)[O-])NN=C(C)c1cccnc1 [compound 34]

Compound | IC50 [1, 2] [µM] | IC50 [1, 3] [µM] | IC50 [1, 4] [µM] | melting point | IC50 [1, 5] [µM] | IC50 [1, 6] [µM] | IC50 [1, 7] [µM]
CNC(=C[N+](=O)[O-])NNc1c([N+](=O)[O-])c(C)nn1C [Compound No. 30] | 11.3 | 17.5 | 14.4 | 164 °C (dec.) | – | – | –
CSC(=C[N+](=O)[O-])Nc1ccc([N+](=O)[O-])cc1 [Intermediate 11] | – | – | – | 180 °C | 17.6 | 15.9 | 16.8
CNC(=C[N+](=O)[O-])NNc1ccccc1[N+](=O)[O-] [compound 11] | 31.9 | 33.7 | 32.8 | 194 °C (dec.) | – | – | –
CNC(=C[N+](=O)[O-])NNc1ccc([N+](=O)[O-])cc1 [compound 13] | 20.1 | 16.1 | 18.1 | 186 °C (dec.) | – | – | –
